This note sets out measurements from a melting point compilation (Tetko et al.; mined from patent text by program, amines drawn as free bases though some values may be those of a salt).

The molecule `O=C(O)Cc1ccc2c(c1)CCC(c1ccccc1F)N2` (stereo not given) had a melting point of 117 to 118 °C. Regarding `CN1CC(N2CCc3ccccc3C2)ON=C1CC(c1ccccc1)c1ccccc1` (stereo not given), the melting point worked out at 163 °C. In turn, `CCOc1nc(O)c(C#N)s1` yielded a melting point of 132 °C. `C[C@H]1CCCC(C)(C)[C@@H]1[C@H](O)c1ccc(C(F)(F)F)c(F)c1` registered a melting point of 71 to 73 °C. Then `CC(C)(C)OC(=O)NC(Cc1ccccc1)C(O)CNCC(O)C(Cc1ccccc1)NC(=O)C1c2ccccc2CN1C=O` (stereo not given), with 174 to 176 °C. With `COc1nsc(N2CCN(c3ccccn3)CC2)n1`, the melting point fell in the range of 144 to 145 °C. Then `COC(=O)c1cc(N=NN(C)C)cs1`, with 90 to 92 °C; and `CC(C)(Oc1ccc(CCN)cc1)C(=O)O`, with 187 to 189 °C. Turning to `c1ccc(-c2nc(SCCCSCCCSc3nc(-c4ccccc4)c(-c4ccccc4)[nH]3)[nH]c2-c2ccccc2)cc1`, the melting point lay within 208 to 209 °C. The molecule `C1=C(c2ccccc2)CCN(CCCCc2cnc3ccccc3c2)C1` yielded a melting point of 92.8 to 93.9 °C. In turn, `Clc1cccc(Oc2ncccc2Br)c1` yielded a melting point of 88 to 90 °C.

For `COc1cc2c(Nc3ccc4cn[nH]c4c3)c(C#N)cnc2cc1OCCN1CCc2ccccc2C1`, the melting point lay in the range of 170 to 173 °C. Then `O=c1[nH]c2cc(Cl)ccc2n1CCCN1CCC(O)(c2ccc(Cl)cc2)CC1`, with 191 °C; and `CC#CCOc1ccc(S(=O)(=O)C(C(=O)NO)C2CCN(C(C)=O)CC2)cc1` (stereo not given), with 103 °C; and `CCc1cc(C(C)=O)c(O)cc1OCc1cccc(C(=O)O)c1`, with 161 to 164 °C. `O=C(O)C1(CCCCCCCCCCCCC2(C(=O)NC3CC3)CC2)CC1` yielded a melting point of 95.3 to 97.7 °C. In turn, `FC(F)(F)c1cn2c(c1-c1ccccc1)CCC2` gave a melting point of 154 °C. The molecule `CC(NC(=S)Nc1ccc(Nc2ccccc2)nc1)C(C)(C)C` (stereo not given) gave a melting point of 168 to 170 °C. In turn, `COc1ccc(-c2ccc(-c3ccc(F)cc3)nc2-c2ccc(OCc3ccccc3)cc2)cc1` gave a melting point of 114 to 115 °C. Next, `COc1cc(C(=O)c2c[nH]c(-c3c[nH]c4ccccc34)n2)cc(OC)c1OC`: 208 to 210 °C; `CNC(=O)CS(=O)(=O)c1ccccc1`: 106 to 109 °C; `OC1CSC(Oc2cnc(-c3cccnc3)c(F)c2)C(O)C1O` (stereo not given): 179 °C.

Take `CC(C)Cn1c(=O)[nH]c2c(C(N)=O)nc(-c3cccc(O)c3)nc21`: the melting point is 374 to 376 °C.

For the molecule `O=C(O)CCc1c(-c2cc(Cl)ccc2O)c2cc(C(F)(F)F)ccc2[nH]c1=O`, the melting point lay within 255 to 258 °C.

Take `Cc1nc(Nc2ccc(Cl)cc2)sc1C(=O)c1sc(Nc2ccc(Cl)cc2)nc1C`: the melting point fell in the range of 184 to 186 °C. For `COc1ccc2c(c1)c(Cc1cc(=O)n(C3CCCCC3)[nH]1)c(C)n2Cc1ccccc1`, the melting point fell in the range of 102 to 105 °C. Molecule `N#CSc1ccc(N)c(C(F)(F)F)c1` displayed a melting point of 52 to 55 °C. Regarding `COc1ccc(/C(=C\C=C\C2CC2)C(=O)O)cc1`, the melting point fell in the range of 158 to 160 °C. Then `COC(=O)c1cc2c3c(Cl)cc(Cl)cc3n(C)c2s1`, with 231 to 232 °C. As for `CCCNC1CCC(O)CC1` (stereo not given), the melting point stood at 20 °C.

`CC(C)(Cc1c(C(=O)c2ccccc2)c2cc(OCc3ccc4ccccc4n3)ccc2n1Cc1ccc(Cl)cc1)C(=O)O` yielded a melting point of 165 to 166 °C. In turn, `COc1cccc(NC(=O)NC2CC(c3ccccc3F)c3ccccc3N(CC(=O)NC(C)(C)C)C2=O)c1` (stereo not given) gave a melting point of 265 to 280 °C. Consider `O=c1nc(-c2ccccn2)sc2cc(C(F)(F)F)ccc12`, for which the melting point fell in the range of 176 to 177 °C. On to `O=C(O)c1cc([N+](=O)[O-])c(Nc2ccccc2)c(S(=O)(=O)Nc2ccccc2)c1`, for which the melting point fell in the range of 249 to 250 °C. As for `CCOCCOc1ccc(C(=O)CN(Cc2ccccc2)Cc2ccccc2)cc1C(=O)OC`, the melting point amounted to 57 °C.

For orientation: melting point means the temperature, or range, at which the solid turns liquid.
